{"source": "patent US9045398B2", "about": "“Sulfonium salt and photo-acid generator” (SAN-APRO LTD., priority 2013, dated 2015)", "key": {"[1]": {"assay": "Degree of solubility in propylene glycol monomethyl ether acetate (PGMEA)", "assay_type": "physicochemical", "conditions": "for Degree of solubility in PGMEA compared with Comparative Examples 1 to 3 (identical anion, different cation): versus Comparative Examples 1 to 3; for Degree of solubility (%): in propylene glycol monomethyl ether acetate (PGMEA)", "protocol": "The degrees of solubility in propylene glycol monomethyl ether acetate (PGMEA) of the photo-acid generators (A-1) to (A-10) of the present invention and the photo-acid generators (H-1) to (H-3) of comparative examples were measured.\nThe degree of solubility determined by the above-mentioned operations was judged according to the following criteria. The results are shown in Table 2. • S: 30% or more • A: 5% or more but less than 30% • B: 1% or more but less than 5% • C: less than 1%"}, "[2]": {"assay": "Evaluation of light sensitivity: acid generation ratio after ArF excimer lamp exposure (Rhodamine B base colour reagent)", "assay_type": "physicochemical", "conditions": "2.5 mM in acetonitrile with 2.5 mM Rhodamine B base; ArF excimer lamp 193 nm, 1.8 mW/cm^2, integrated amount of light 100 mJ/cm^2", "protocol": "The photo-acid generators (A-1) to (A-10) of the present invention and the photo-acid generators (H-1) to (H-3) of comparative examples were each diluted with acetonitrile so that their molar concentrations would be 2.5 mM, and then Rhodamine B base (a color reagent for an acid, produced by Sigma-Aldrich) was added to the respective solutions so that the molar concentration would be 2.5 mM, yielding sample solutions.\nA sample solution obtained above was put into a quartz cell having an optical path length of 1 cm and then was exposed to light under prescribed conditions using an ArF excimer lamp (center wavelength=193 nm). The absorbance near 556 nm of the respective sample solutions after exposure to light was measured with a spectrophotometer (UV-vis) because the photo-acid generator in a sample solution is decomposed upon exposure to light to generate an acid, which then reacts with Rhodamine B base and, as a result, the absorbance near 556 nm increases. Based on the absorbance at 556 nm, the molar concentration of the acid in the sample solution after exposure to light was determined using a calibration curve (standard substance: p-toluenesulfonic acid). From the acid concentration determined and the initial concentration of the photo-acid generator, the acid generation ratio was determined by the following calculation.\nThe acid generation ratio determined by the above-mentioned operations was judged according to the following criteria. The results are shown in Table 2. • A: 55% or more • C: less than 55% • (Light Exposure Conditions) • Photolithography machine: ArF excimer lamp (manufactured by USHIO INC.) • Illuminance (measured with a 193 nm head illuminometer): 1.8 mW/cm^2 • Integrated amount of light (measured with a 193 nm head illuminometer): 100 mJ/cm^2 <Evaluation of Solubility> (Measurement of Degree of Solubility)"}}, "data": [{"smiles": "Fc1cccc([S+](c2ccccc2)c2ccccc2)c1", "note": "[A-1]", "values": [{"measurement": "Degree of solubility in PGMEA compared with Comparative Examples 1 to 3 (identical anion, different cation)", "setting": "[1]", "result": "higher"}, {"measurement": "Degree of solubility (%)", "setting": "[1]", "result": "A (5% or more but less than 30%)"}, {"measurement": "Acid generation ratio (%)", "setting": "[2]", "result": "A (55% or more)"}]}, {"smiles": "Fc1cccc([S+](c2ccccc2)c2ccccc2)c1", "note": "[A-2]", "values": [{"measurement": "Degree of solubility (%)", "setting": "[1]", "result": "S (30% or more)"}, {"measurement": "Acid generation ratio (%)", "setting": "[2]", "result": "A (55% or more)"}]}, {"smiles": "Fc1cccc([S+](c2ccccc2)c2ccccc2)c1", "note": "[A-3]", "values": [{"measurement": "Degree of solubility (%)", "setting": "[1]", "result": "S (30% or more)"}, {"measurement": "Acid generation ratio (%)", "setting": "[2]", "result": "A (55% or more)"}]}, {"smiles": "Fc1cccc([S+](c2ccccc2)c2ccccc2)c1", "note": "[A-4]", "values": [{"measurement": "Degree of solubility (%)", "setting": "[1]", "result": "S (30% or more)"}, {"measurement": "Acid generation ratio (%)", "setting": "[2]", "result": "A (55% or more)"}]}, {"smiles": "FC(F)(F)c1cccc([S+](c2ccccc2)c2ccccc2)c1", "note": "[A-6, diphenyl-3-trifluoromethylphenylsulfonium trifluoromethane sulfonate]", "values": [{"measurement": "Degree of solubility in PGMEA compared with Comparative Examples 1 to 3 (identical anion, different cation)", "setting": "[1]", "result": "higher"}, {"measurement": "Degree of solubility (%)", "setting": "[1]", "result": "A (5% or more but less than 30%)"}, {"measurement": "Acid generation ratio (%)", "setting": "[2]", "result": "A (55% or more)"}]}, {"smiles": "FC(F)(F)c1cccc([S+](c2ccccc2)c2ccccc2)c1", "note": "[A-7]", "values": [{"measurement": "Degree of solubility (%)", "setting": "[1]", "result": "S (30% or more)"}, {"measurement": "Acid generation ratio (%)", "setting": "[2]", "result": "A (55% or more)"}]}, {"smiles": "FC(F)(F)c1cccc([S+](c2ccccc2)c2ccccc2)c1", "note": "[A-8]", "values": [{"measurement": "Degree of solubility (%)", "setting": "[1]", "result": "S (30% or more)"}, {"measurement": "Acid generation ratio (%)", "setting": "[2]", "result": "A (55% or more)"}]}, {"smiles": "FC(F)(F)c1cccc([S+](c2ccccc2)c2ccccc2)c1", "note": "[A-9]", "values": [{"measurement": "Degree of solubility (%)", "setting": "[1]", "result": "S (30% or more)"}, {"measurement": "Acid generation ratio (%)", "setting": "[2]", "result": "A (55% or more)"}]}, {"smiles": "O=S(=O)([O-])C(F)(F)F.c1ccc([S+](c2ccccc2)c2ccccc2)cc1", "note": "[H-1, Triphenylsulfonium trifluoromethanesulfonate, reference compound]", "values": [{"measurement": "Degree of solubility (%)", "setting": "[1]", "result": "C (less than 1%)"}, {"measurement": "Acid generation ratio (%)", "setting": "[2]", "result": "A (55% or more)"}]}, {"smiles": "Cc1ccc([S+](c2ccccc2)c2ccccc2)cc1.O=S(=O)([O-])C(F)(F)F", "note": "[H-2, (4-Methylphenyl)diphenylsulfonium trifluoromethanesulfonate, reference compound]", "values": [{"measurement": "Degree of solubility (%)", "setting": "[1]", "result": "B (1% or more but less than 5%)"}, {"measurement": "Acid generation ratio (%)", "setting": "[2]", "result": "C (less than 55%)"}]}, {"smiles": "Fc1ccc([S+](c2ccccc2)c2ccccc2)cc1.O=S(=O)([O-])C(F)(F)F", "note": "[H-3, (4-Fluorophenyl)diphenylsulfonium trifluoromethanesulfonate, reference compound]", "values": [{"measurement": "Degree of solubility (%)", "setting": "[1]", "result": "B (1% or more but less than 5%)"}, {"measurement": "Acid generation ratio (%)", "setting": "[2]", "result": "C (less than 55%)"}]}]}
